From patent publication US20250179057A1, “MEK IMMUNE ONCOLOGY INHIBITORS AND THERAPEUTIC USES THEREOF” (Immuneering Corporation, priority 2022, published 2025)
≈ marks a conversion by molar mass, not a printed value. Read-outs that look alike come from different tables or passages of the source. Each block holds one molecule with its values, some of them ahead of it.

Tests used:
[1] = system: phospho-ERK in A549 (KRAS G12S) cells; test: Cell-based pERK (pERK:tERK) in A549 cells; settings: for A549-pERK (10 nM, 2 h): phospho- to total protein ratio normalized to DMSO control (Table 9); for activity at 0.01 µM: Homo sapiens, A549, 2 h, read-out: A549-pERK (10 nM, 2 h); for pERK:tERK (10 nM 2 h A549): Phospho-ERK Screen in A549 (KRAS G12S), head 10 nM 2 h, title 10 μM for 2 hours
In short: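 Readout was pERK versus tERK by Western blot with IRDye-labelled secondary antibodies, imaged and quantified on a LI-COR Odyssey. Lysates were loaded at 1 mg/mL protein after Bradford estimation.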

[2] = system: phospho-MEK in A549 cells; test: Cell-based pMEK (pMEK:tMEK, CRAF bypass) in A549 cells; settings: 2 h; for A549-pMEK 100 nM, 2 h: normalized to DMSO control (Table 13)
Protocol: Materials and Methods: A549 or A375 cells were seeded in 6-well plates at an appropriate seeding density on day 0. On day 2 or 3, after checking the health and confluency of cells, the media was aspirated and replaced with 1 mL media containing a predetermined concentration of compound and incubated for 2 hours. After 2 hours, the media was aspirated, and the cells washed 2 times with cold PBS. Cells were lysed on ice, with 50 uL 1×CST lysis buffer +1 mM PMSF for 5 minutes. After 5 minutes, cells were removed using a scraper and transferred to cold 1.5 mL tubes, and centrifuged for 10 min, 4° C., 14,000×g. Supernatant was gently removed and snap frozen in liquid nitrogen. Protein concentration of the lysate was determined using Bradford Reagent (analyzed using SpectraMax M2E) and diluted to 1 mg/mL or pERK or 1.5 mg/mL for pMEK analysis. […] All dilutions were in Milk-free antibody diluent.
(§1) A549 or […] cells were treated in duplicate for two hours with compounds at varying concentrations. After two hours, the cells were lysed, snap frozen, and stored at −80° C. After storage, the lysate was quantified with the Bradford assay. Before the lysates were prepared to run on the Jess, the lysates were diluted to 1 mg/mL for pERK analysis and 1.5 mg/mL pMEK analysis using quantitative Western blotting. ERK and MEK phosphorylation levels were estimated by taking the ratio of phospho-protein to total protein and normalizing to the DMSO control.
as §1

[3] = Kinetic solubility (PBS pH 7.4; 4 hr); type: physicochemical; settings: free base (Table 19), read-out: Kinetic Solubility
Protocol: The plates were shaken for 4 h at room temperature in an Eppendorf Thermomixer. After incubation, the plates were centrifuged for 20 minutes at 4680 rpm. From the supernatant, 150 μL was transferred to a new 96 well plate and 50 μL DMSO was added to ensure continued dissolution. Samples were measured on LC-UV at injection volumes of 1 and 8 μL. Peak areas were determined and compared to peak areas obtained using calibration curves of the test compounds in DMSO.

[4] = Mouse pharmacokinetics (oral cassette dosing), plasma; type: in vivo; settings: BALB/c immunocompetent mice, 5 mg/kg p.o.
Protocol: Female mice (BALC/c) received a single dose (3 mice/treatment) of vehicle (10% 1N HCl:90% [20% […]) and at 0.5, 1, 2, 4, 8, 12 and 24-hour post dose humanely euthanized.
Blood was obtained through cardiac puncture into K+EDTA tubes, mixed by inversion and centrifuged to obtain the plasma. Blood will be kept on ice or at approximately 4° C. prior. Centrifugation will take place within 30 minutes of blood collection affording plasma samples. Plasma samples will be frozen as soon as possible after centrifugation and stored at −80° C. until analysis. All samples will be analysed by means of LC-MS/MS. Method development for bioanalysis will be performed by pharmacokinetics Department of Crown Bioscience (Taicang) Inc. using LC-MS/MS analysis (using Waters HSS T3 2.1×50 mm (1.8 um) LC column, and an API-4000 Electrospray MS unit). The results of a kinetic solubility (free base) study are represented in Table 19.

PAMPA (pH 7.4) = type: in vitro ADME; settings: PAMPA; pH = 7.4 (Table 14)
Protocol: Each stock solution was diluted to 50 M in pH 7.4 Prisma HT buffer (pION) and 200 μl was added to each well of the donor plate in triplicate. The polyvinylidene fluoride (PVDF, 0.45 μm) filter membrane on the acceptor plate was coated with 5 μl gastrointestinal tract lipid formulation (GIT-0, pION) and to each well of the acceptor plate, 200 μl of acceptor sink buffer (pION) was added. The acceptor filter plate was then carefully placed on top of the donor plate to form a sandwich. The sandwich was incubated at 25° C. for 4 h without stirring. UV-vis spectra of the solutions in the blank, reference, acceptor and donor plates were measured using a microplate reader (Tecan Infinite 200PRO M Nano Plus). Permeability values were calculated using the PAMPA explorer software v.

hERG = hERG (Homo sapiens, UniProt Q12809); test: cell-based
Protocol: Materials and Methods: CHO cells (transformed with adenovirus 5 DNA; Stably transfected with full length hERG cDNA) were cultured in Ham's F-12 supplemented with 10% fetal bovine serum, 100 U/mL penicillin G sodium, 100 μg/mL streptomycin sulfate and 400 μg/mL Zeocin. Before testing, cells in culture dishes were rinsed with Hank's Balanced Salt Solution, detached with accutase.
HEPES-buffered intracellular solution (Charles River proprietary) for whole cell recordings was loaded into the intracellular compartment of the SP384PE. Extracellular buffer (HB-PS) and Cell suspension (in HB-PS) were pipetted into the extracellular compartment of the SP384PE chip. After establishment of a whole-cell configuration, membrane currents were recorded using patch clamp amplifier in the SP384PE system.
Test article (TA) concentrations (eight (8) concentrations of each test article were evaluated) were applied to naïve cells (n=4, where n=replicates/concentration). Each application consisted of addition of 40 μL of 2× concentrated test article solution to the total 80 μL of final volume of the extracellular well of the SP384PE chip. Duration of exposure to each compound concentration was five (5) minutes.
hERG current was measured using stimulus voltage patterns with fixed amplitudes: activation pre-pulse (TP1) to +40 mV for 2 s and test pulse (TP2) to −40 mV for 2 s from a holding potential of −80 mV. hERG current was measured as the outward peak current at TP2 (tail current). The stimulation was repeated with 0.1 Hz frequency during 2 min as baseline and 5 min after TA application.
Data acquisition and analyses were performed using the SP384PE system operation software. The decrease in current amplitude after TA application was used to calculate the percent block relative to control.
Tonic Block effect was calculated as:
[formula] • where ITP2, baseline and ITP2, TA were the outward peak K^+ currents elicited by the TP2 before application and 5 min after application of a test article, respectively.
The data were corrected for run-down:
[formula] • where % VC and % PC were the mean values of the current block with the vehicle and positive controls, respectively.
Concentration-response data were fitted to an equation of the following form:
[formula] • where [Test] was the concentration of test article, IC50 was the concentration of the test article producing half-maximal block, N was the Hill coefficient, % VC was the mean current block at the vehicle control and % Block was the percentage of ion channel current inhibited at each concentration of a test article. Nonlinear least squares fits were solved with the XLfit add-in for Excel (Microsoft, Redmond, WA).
In this study, hERG Ion channel block of IC50 values were determined. […] In brief, CHO cells were cultured in Ham's F-12 supplemented with 10% fetal bovine serum, 100 U/mL penicillin G sodium, 100 μg/mL streptomycin sulfate and 400 μg/mL Zeocin. Before testing, cells in culture dishes were rinsed with Hank's Balanced Salt Solution, detached with accutase. […] Test article (TA) concentrations were applied to naïve cells (n=4, where n=replicates/concentration). Each application consisted of addition of 40 μL of 2× concentrated test article solution to the total 80 μL of final volume of the extracellular well of the SP384PE chip. Duration of exposure to each compound concentration was five (5) minutes. hERG current was measured using stimulus voltage patterns with fixed amplitudes: activation pre-pulse (TP1) to +40 mV for 2 s and test pulse (TP2) to −40 mV for 2 s from a holding potential of −80 mV. hERG current was measured as the outward peak current at TP2 (tail current). The stimulation was repeated with 0.1 Hz frequency during 2 min as baseline and 5 min after TA application. Data acquisition and analyses were performed using the SP384PE system operation software.

CYP2D6 = CYP2D6 (Homo sapiens, UniProt P10635); test: CYP450 panel inhibition in human liver microsomes, 2D6 (dextromethorphan); settings: control dose 1 μM, substrate dextromethorphan
in vitro = settings: human
CYP2C9 = CYP2C9 (Homo sapiens, UniProt P11712); test: CYP450 panel inhibition in human liver microsomes, 2C9 (diclofenac)
Description: The quenched samples were stored refrigerated.

[5] = PBS buffer, pH 7.4, aqueous buffer, kinetic from dmso stock
[6] = female, mouse, read-out: AUC0-t

Chain of hERG (Q12809 whole entry): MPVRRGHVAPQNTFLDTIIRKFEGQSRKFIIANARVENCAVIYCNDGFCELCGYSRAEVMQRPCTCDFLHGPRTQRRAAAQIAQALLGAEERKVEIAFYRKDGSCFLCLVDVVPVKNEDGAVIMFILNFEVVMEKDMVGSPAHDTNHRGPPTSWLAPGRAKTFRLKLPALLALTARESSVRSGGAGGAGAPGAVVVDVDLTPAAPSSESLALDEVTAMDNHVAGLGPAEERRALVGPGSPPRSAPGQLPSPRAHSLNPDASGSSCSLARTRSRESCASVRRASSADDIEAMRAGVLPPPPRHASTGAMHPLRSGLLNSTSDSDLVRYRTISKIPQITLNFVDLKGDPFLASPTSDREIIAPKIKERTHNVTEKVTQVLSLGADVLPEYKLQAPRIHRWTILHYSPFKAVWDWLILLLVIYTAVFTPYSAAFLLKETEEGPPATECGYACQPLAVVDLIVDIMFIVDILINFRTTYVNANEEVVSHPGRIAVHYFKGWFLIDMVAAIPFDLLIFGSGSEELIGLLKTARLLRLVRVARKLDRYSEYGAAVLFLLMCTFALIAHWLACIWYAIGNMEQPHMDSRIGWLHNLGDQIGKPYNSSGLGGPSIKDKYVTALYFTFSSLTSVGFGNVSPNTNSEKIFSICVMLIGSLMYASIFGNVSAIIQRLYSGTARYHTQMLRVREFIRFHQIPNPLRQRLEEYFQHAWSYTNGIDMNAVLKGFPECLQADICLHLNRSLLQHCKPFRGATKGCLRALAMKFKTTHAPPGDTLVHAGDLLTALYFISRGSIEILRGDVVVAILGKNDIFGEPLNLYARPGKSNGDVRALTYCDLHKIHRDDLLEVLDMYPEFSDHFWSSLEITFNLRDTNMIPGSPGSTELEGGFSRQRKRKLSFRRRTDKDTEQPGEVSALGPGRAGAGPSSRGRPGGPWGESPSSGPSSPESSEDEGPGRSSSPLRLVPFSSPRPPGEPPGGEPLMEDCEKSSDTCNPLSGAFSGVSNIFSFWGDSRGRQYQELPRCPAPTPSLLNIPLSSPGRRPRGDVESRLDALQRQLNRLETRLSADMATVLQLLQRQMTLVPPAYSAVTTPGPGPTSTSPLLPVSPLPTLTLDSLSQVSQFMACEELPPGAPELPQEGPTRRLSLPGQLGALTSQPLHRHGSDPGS
Chain of CYP2C9 (P11712 whole entry): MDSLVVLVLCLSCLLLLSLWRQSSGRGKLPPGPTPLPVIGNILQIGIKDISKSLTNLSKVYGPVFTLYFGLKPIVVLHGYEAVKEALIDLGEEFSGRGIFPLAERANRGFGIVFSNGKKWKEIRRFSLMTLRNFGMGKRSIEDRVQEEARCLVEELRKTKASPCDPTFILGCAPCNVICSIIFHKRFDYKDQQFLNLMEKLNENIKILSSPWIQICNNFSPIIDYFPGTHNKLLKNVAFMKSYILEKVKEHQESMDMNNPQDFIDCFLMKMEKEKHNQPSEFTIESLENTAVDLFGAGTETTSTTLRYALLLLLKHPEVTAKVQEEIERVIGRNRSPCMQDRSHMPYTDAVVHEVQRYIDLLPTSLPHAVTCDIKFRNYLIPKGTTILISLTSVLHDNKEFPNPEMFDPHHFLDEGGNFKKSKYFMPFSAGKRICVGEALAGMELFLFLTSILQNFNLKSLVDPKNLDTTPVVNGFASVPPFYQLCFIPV
Chain of CYP2D6 (P10635 whole entry): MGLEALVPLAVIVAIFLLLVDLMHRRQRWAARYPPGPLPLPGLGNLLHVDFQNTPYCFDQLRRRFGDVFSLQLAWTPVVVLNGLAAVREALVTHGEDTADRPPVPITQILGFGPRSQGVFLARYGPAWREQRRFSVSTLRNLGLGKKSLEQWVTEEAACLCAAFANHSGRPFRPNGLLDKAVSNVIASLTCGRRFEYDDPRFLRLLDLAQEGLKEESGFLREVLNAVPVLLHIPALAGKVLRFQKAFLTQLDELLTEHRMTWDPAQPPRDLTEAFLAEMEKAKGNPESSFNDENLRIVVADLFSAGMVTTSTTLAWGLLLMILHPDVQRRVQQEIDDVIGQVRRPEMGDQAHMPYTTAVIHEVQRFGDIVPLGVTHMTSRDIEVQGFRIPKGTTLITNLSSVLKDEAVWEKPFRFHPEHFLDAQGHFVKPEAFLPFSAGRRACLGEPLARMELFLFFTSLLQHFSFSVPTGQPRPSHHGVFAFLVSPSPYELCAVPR

Structure (SMILES): CNS(=O)(=O)Nc1cccc(Cc2c(CN(C)C)c3cc(Cl)c(OC(=O)N(C)C)cc3oc2=O)c1F [Compound 24]
A549-pERK (10 nM, 2 h) [1]: 42.4
A549-CRAF BP 100 nM, 2 h ([2]; pMEK to total MEK normalized to DMSO control): 55.9 (mean, n = 2)
solubility kinetic at 4 h [3]: 57 µM (≈ 30.8 µg/mL)
AUC(0-t) [4]: 850.1 ng·h/mL
Cmax [4]: 422.7 ng/mL
Tmax [4]: 60 min

Structure (SMILES): CCN(C)Cc1c(Cc2cccc(NS(=O)(=O)CC)c2F)c(=O)oc2cc(OC(=O)N(C)C)c(Cl)cc12 [Compound 166]
A549-pERK (10 nM, 2 h) [1]: 60.9
solubility kinetic at 4 h [3]: 80 µM (≈ 44.3 µg/mL)
AUC(0-t) [4]: 11.8 ng·h/mL
Cmax [4]: 9.1 ng/mL
Tmax [4]: 120 min

Structure (SMILES): CNS(=O)(=O)Nc1cccc(Cc2c(CN(C)CCF)c3ccc(OC(=O)N(C)C)cc3oc2=O)c1F [Compound 240]
activity at 0.01 µM [1]: 66%
A549-pMEK 100 nM, 2 h [2]: 34.2
solubility kinetic at 4 h [3, 5]: 67 µM (≈ 36.1 µg/mL)
Papp at 4 h, 50 μM (PAMPA (pH 7.4)): 62 ×10⁻⁶ cm/s
AUC(0-t) [4, 6]: 290 ng·h/mL
Cmax ([4]; female, mouse, read-out: Cmax): 865 ng/mL
Tmax ([4]; female, mouse, read-out: Tmax): 4.98 min

Structure (SMILES): CNS(=O)(=O)Nc1cccc(Cc2c(CN(C)CC(F)F)c3ccc(OC(=O)N(C)C)cc3oc2=O)c1F [Compound 242]
activity at 0.01 µM [1]: 69.7%
A549-pMEK 100 nM, 2 h [2]: 33.2
Papp at 4 h, 50 μM (PAMPA (pH 7.4)): 72 ×10⁻⁶ cm/s

Structure (SMILES): CNS(=O)(=O)Nc1cccc(Cc2c(CN(C)C)c3c(F)cc(OC(=O)N(C)C)cc3oc2=O)c1F [Compound 244, 4-((dimethylamino)methyl)-5-fluoro-3-(2-fluoro-3-((N-methylsulfamoyl)amino)benzyl)-2-oxo-2H-chromen-7-yl dimethylcarbamate]
activity at 0.01 µM [1]: 44.7%
A549-pMEK 100 nM, 2 h [2]: 26.1
Papp at 4 h, 50 μM (PAMPA (pH 7.4)): 8 ×10⁻⁶ cm/s

Structure (SMILES): CN(C)C(=O)Oc1cc2oc(=O)c(Cc3cccc(NS(=O)(=O)CC(F)(F)F)c3F)c(CN3CCNCC3)c2cc1Cl [Compound 247, 6-chloro-3-(2-fluoro-3-((2,2,2-trifluoroethyl)sulfonamido)benzyl)-2-oxo-4-(piperazin-1-ylmethyl)-2H-chromen-7-yl dimethylcarbamate]
activity at 0.01 µM [1]: 105%
Papp at 4 h, 50 μM (PAMPA (pH 7.4)): 7 ×10⁻⁶ cm/s

Structure (SMILES): CNS(=O)(=O)Nc1cccc(Cc2c(CN(C)C)c3ccc(OC(=O)N(C)C)cc3oc2=O)c1Br [Compound 248]
activity at 0.01 µM [1]: 80.9%
pERK:tERK (10 nM 2 h A549) [1]: 81
solubility kinetic at 4 h [3, 5]: > 80 µM
Papp at 4 h, 50 μM (PAMPA (pH 7.4)): 60 ×10⁻⁶ cm/s
AUC(0-inf) ([4]; female, mouse): 28.3 ng·h/mL
half-life ([4]; female, mouse): 312 min
AUC(0-t) [4, 6]: 19.5 ng·h/mL
Cmax ([4]; female, mouse, read-out: Cmax): 8.3 ng/mL
Tmax ([4]; female, mouse, read-out: Tmax): 30 min

Structure (SMILES): CNS(=O)(=O)Nc1cccc(Cc2c(CN3CCNCC3)c3cc(F)c(OC(=O)N(C)C)cc3oc2=O)c1Cl [Compound 254, 3-(2-chloro-3-((N-methylsulfamoyl)amino)benzyl)-6-fluoro-2-oxo-4-(piperazin-1-ylmethyl)-2H-chromen-7-yl dimethylcarbamate]
IC50 (hERG): > 30 µM
activity at 0.01 µM [1]: 26.8%
pERK:tERK (10 nM 2 h A549) [1]: 27
Papp at 4 h, 50 μM (PAMPA (pH 7.4)): 2 ×10⁻⁶ cm/s

Structure (SMILES): CCS(=O)(=O)Nc1cccc(Cc2c(CN3CCNCC3)c3cc(F)c(OC(=O)N(C)C)cc3oc2=O)c1Cl [Compound 255, 3-(2-chloro-3-(ethylsulfonamido)benzyl)-6-fluoro-2-oxo-4-(piperazin-1-ylmethyl)-2H-chromen-7-yl dimethylcarbamate]
IC50 (hERG): 18.1 µM
activity at 0.01 µM [1]: 37.1%
pERK:tERK (10 nM 2 h A549) [1]: 37
Papp at 4 h, 50 μM (PAMPA (pH 7.4)): 5 ×10⁻⁶ cm/s

Structure (SMILES): C=C[C@H]1C[N@@]2CC[C@H]1C[C@@H]2[C@@H](O)c1ccnc2ccc(OC)cc12 [Quinidine, reference compound]
CYP-2D6 (Dextromethorphan) mean percentage CYP inhibition, control (CYP2D6): 93.1%

A − B Permeability Ranking (Caco-2 cells): Lower
A-B Permeability Ranking (Caco-2 cells): Low
efflux ratio at 2 h, 10 μM (in vitro; Caco-2, Mean (B-A/A-B) (Efflux Ratio)): 4.06
efflux ratio at 2 h, 10 μM (in vitro; Caco-2, Mean Efflux Ratio): 2.89
Papp A→B at 2 h, 10 μM (in vitro; Caco-2, Mean Papp A − B (10^−6 cm/s)): 0.407 ×10⁻⁶ cm/s
Papp A→B at 2 h, 10 μM (in vitro; Caco-2, Mean Papp A-B (10^-6 cm/s)): 0.347 ×10⁻⁶ cm/s
Papp B→A at 2 h, 10 μM (in vitro; Caco-2, Mean Papp B − A (10^−6 cm/s)): 1.18 ×10⁻⁶ cm/s
Papp B→A at 2 h, 10 μM (in vitro; Caco-2, Mean Papp B-A (10^-6 cm/s)): 1.41 ×10⁻⁶ cm/s
Structure (SMILES): CNC(=C[N+](=O)[O-])NCCSCc1ccc(CN(C)C)o1 [Ranitidine]

Structure (SMILES): Nc1ccc(S(=O)(=O)Nc2ccnn2-c2ccccc2)cc1 [Sulfaphenazole, reference compound]
2C9* (Diclofenac) (CYP2C9; 10 μM, human liver microsomes, percent inhibition): 101.2
inhibition at 30 min, 10 µM (CYP2C9; human, microsomes, pH 7.4): 95.6%
